Data published in patent US11680056B2, “MK2 inhibitors and uses thereof” (Xinthera, Inc., priority 2021, dated 2023).
Read-outs that look alike come from different tables or passages of the source.

Experiments:
[1] = target: p38a/PRAK (Homo sapiens (Human), UniProt Q16539); assay: p38a/PRAK biochemical assay: activation of PRAK by p38, FITC-HSP27 peptide phosphorylation (IMAP FP); settings: 10-point 1:3 dilution, top dose 300 μM; 60 pM active p38a, 1 nM inactive PRAK, 10 μM ATP, 2 h incubation; read-out: p38a/PRAK Enzyme pIC50 (converted)
Experimental: (§1) Expression vectors of the recombinant MK2 and PRAK kinases were constructed by cloning of the codon optimized gene sequences of MK2 (Uniprot ID P49137, amino acid fragment F46-H400), or PRAK (Uniprot ID Q81W41, amino acid fragment M1-Q471) into pGEX-4T1 (GE) for over expression of these kinases with N-terminal GST-tag. Protein expression was carried out in E. coli BL21 by growing the hosts in TB medium, induction of protein expression with 0.5 mM IPTG at approximate 0.8 OD600, and incubation of the cultures at 18° C. for 14-20 hours afterwards. The harvested cells were resuspended in […] of Lysis buffer (50 mM Tris-HCl, pH 8.0, 500 mM NaCl, 1 mM DTT, 5% glycerol, and 1 mM PMSF) per gram of wet cell mass and homogenized at 4° C. in a microfluidizer (ATS, Suzhou, China) at 14,000 psi pressure, 3 passes. The cell lysates were clarified by centrifugation and the supernatants containing the GST-fusion proteins were purified by affinity chromatography using GSH-Sepharose (GE) gravity flow columns pre-equilibrated in Buffer A (50 mM Tris-HCl, pH 8.0, 500 mM NaCl, 1 mM DTT, and 5% glycerol). After thorough washing of the columns with Buffer A, the bound GST-proteins were eluted by Buffer B (50 mM Tris, pH 8.0, 500 mM NaCl, 1 mM DTT, 5% glycerol, 10 mM glutathione), followed by size-exclusion purification on Superdex 200 column equilibrated in Buffer A. The purified proteins were concentrated to approximately 1 mg/ml and stored at −80° C.
(§2) This study evaluates the inhibitory potency of invention compound on p38/MK2 pathway vs p38/PRAK pathway. More specially the compound concentration (IC50) was determined that inhibited half of the maximal activation of MK2 or PRAK by p38. MK2 activation study was set up without or with a serial of 10-point 1:3 dilution of invention compound at top dose of 1 or 1 μM, and PRAK activation study was set up without or with a serial of 10-point 1:3 dilution of invention compound at top dose of 300 μM. The MK2 and PRAK activity were determined by the phosphorylation level of HSP27 peptide conjugated with FITC.
(§3) After 2 h incubation of the reaction mixture with various concentration of invention compound (200 nL), 60 μL 1×IMAP solution Mixture (Molecular Devices, Cat R8127) was added to the reaction mixture and incubated for another half hour. The signal was then read by Synergy™ Neo2 Multi-Mode Microplate Reader with filter setting (Ex/Em=485 nm/FITC FP-P pol 528 nm & FITC FP-S pol 528 nm)
(§4) The signal was then normalized to vehicle control and fitted in Xfit to generate IC50. The selectivity of MK2 over PRAK was calculated by the formular Selectivity=IC50 of PRAK/IC50 of MK2.

[2] = target: p38a/MK2 (Homo sapiens (Human), UniProt P49137+Q16539); assay: p38a/MK2 biochemical assay: activation of MK2 by p38, FITC-HSP27 peptide phosphorylation (IMAP FP); settings: 10-point 1:3 dilution, 60 pM active p38a, 1 nM inactive MK2, 10 μM ATP, 2 h incubation
Experimental: as §1
as §2, with “1:[…],” for “1:3 dilution of invention compound at top dose of 1 or 1 μM,”
as §3, §4

[3] = top dose 1 μM, read-out: p38a/MK2 (1 μM) Enzyme pIC50 (converted)
[4] = top dose 10 μM, read-out: p38a/MK2 (10 μM) Enzyme pIC50 (converted)

Sequence of p38a/MK2 (P49137 46-400): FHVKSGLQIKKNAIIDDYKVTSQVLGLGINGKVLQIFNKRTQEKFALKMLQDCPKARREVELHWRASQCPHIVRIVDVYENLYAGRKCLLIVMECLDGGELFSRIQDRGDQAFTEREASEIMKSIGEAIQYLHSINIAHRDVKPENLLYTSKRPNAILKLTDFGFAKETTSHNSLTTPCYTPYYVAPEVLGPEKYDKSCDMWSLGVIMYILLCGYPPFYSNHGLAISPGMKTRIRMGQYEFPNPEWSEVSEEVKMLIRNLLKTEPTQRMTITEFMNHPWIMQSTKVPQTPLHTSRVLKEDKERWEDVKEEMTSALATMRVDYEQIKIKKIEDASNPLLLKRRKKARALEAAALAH
Sequence of p38a/MK2 (Q16539 whole entry): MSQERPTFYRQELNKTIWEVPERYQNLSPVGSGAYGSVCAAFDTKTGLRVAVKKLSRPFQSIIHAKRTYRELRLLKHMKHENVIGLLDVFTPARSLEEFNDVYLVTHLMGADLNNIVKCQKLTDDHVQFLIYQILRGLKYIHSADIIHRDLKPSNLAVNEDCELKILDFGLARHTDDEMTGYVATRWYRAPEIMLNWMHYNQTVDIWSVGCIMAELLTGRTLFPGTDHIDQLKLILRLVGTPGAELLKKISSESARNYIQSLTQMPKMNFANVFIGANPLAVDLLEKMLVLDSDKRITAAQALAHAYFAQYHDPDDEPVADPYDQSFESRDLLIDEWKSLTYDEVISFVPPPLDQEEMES
Sequence of p38a/PRAK (Q16539 whole entry, the tested form may be a part): as the sequence (Q16539 whole entry) above

| Structure (SMILES) | IC50 [1] [µM] | IC50 [2, 3] [µM] | IC50 [2, 4] [µM] |
| --- | --- | --- | --- |
| Cc1cnc(-c2ccnc(C3(CO)CC3)n2)cc1-n1c(C)cc(OCc2ncc(F)cc2F)c(Cl)c1=O (single isomer, unassigned) [Example 21B, rel-3-chloro-4-((3,5-difluoropyridin-2-yl)methoxy)-2′-(2-(1-(hydroxymethyl)cyclopropyl)pyrimidin-4-yl)-5′,6-dimethyl-2H-[1,4′-bipyridin]-2-one] | 2 | 0.00316 | – |
| Cc1cnc(-c2ccn(C(C)(C)CO)n2)cc1-n1c(C)cc(OCc2ncc(F)cc2F)c(Cl)c1=O (single isomer, unassigned) [Example 25A, rel-3-chloro-4-[(3,5-difluoropyridin-2-yl)methoxy]-2′-[1-(1-hydroxy-2-methylpropan-2-yl)pyrazol-3-yl]-5′,6-dimethyl-[1,4′-bipyridin]-2-one] | 3.16 | – | 0.0316 |
| Cc1cnc(-c2ccn(C(C)(C)CO)n2)cc1-n1c(C)cc(OCc2ncc(F)cc2F)c(Cl)c1=O (single isomer, unassigned) [Example 25B, rel-3-chloro-4-[(3,5-difluoropyridin-2-yl)methoxy]-2′-[1-(1-hydroxy-2-methylpropan-2-yl)pyrazol-3-yl]-5′,6-dimethyl-[1,4′-bipyridin]-2-one] | > 316 | – | 3.16 |
| Cc1cnc(-c2ccnc(C3CC(O)C3)n2)cc1-n1c(C)cc(OCc2ncc(F)cc2F)c(Cl)c1=O (single isomer, unassigned) [Example 26A, rel-3-chloro-4-((3,5-difluoropyridin-2-yl)methoxy)-2′-(2-(3-hydroxycyclobutyl)pyrimidin-4-yl)-5′,6-dimethyl-2H-[1,4′-bipyridin]-2-one] | 2 | 0.0126 | – |
| Cc1cnc(-c2ccnc(C3CC(O)C3)n2)cc1-n1c(C)cc(OCc2ncc(F)cc2F)c(Cl)c1=O (single isomer, unassigned) [Example 26B, rel-3-chloro-4-((3,5-difluoropyridin-2-yl)methoxy)-2′-(2-(3-hydroxycyclobutyl)pyrimidin-4-yl)-5′,6-dimethyl-2H-[1,4′-bipyridin]-2-one] | > 316 | – | 1.58 |
| Cc1cnc(-c2nc(C(C)(C)O)ncc2C2CC2)cc1-n1c(C)cc(OCc2ncc(F)cc2F)c(Cl)c1=O (single isomer, unassigned) [Example 31A, rel-3-chloro-2′-(5-cyclopropyl-2-(2-hydroxypropan-2-yl)pyrimidin-4-yl)-4-((3,5-difluoropyridin-2-yl)methoxy)-5′,6-dimethyl-2H-[1,4′-bipyridin]-2-one] | 3.16 | – | 2 |
| Cc1cnc(-c2nc(C(C)(C)O)ncc2C2CC2)cc1-n1c(C)cc(OCc2ncc(F)cc2F)c(Cl)c1=O (single isomer, unassigned) [Example 31B, rel-3-chloro-2′-(5-cyclopropyl-2-(2-hydroxypropan-2-yl)pyrimidin-4-yl)-4-((3,5-difluoropyridin-2-yl)methoxy)-5′,6-dimethyl-2H-[1,4′-bipyridin]-2-one] | > 316 | – | > 10 |
| Cc1cnc(-c2ccc3c(n2)C(C)(O)CC3)cc1-n1c(C)cc(OCc2ncc(F)cc2F)c(Cl)c1=O (single isomer, unassigned) [Example 32A] | 6.31 | 0.02 | – |

Continued, values first:

| IC50 [1] [µM] | IC50 [2, 3] [µM] | IC50 [2, 4] [µM] | Structure (SMILES) |
| --- | --- | --- | --- |
| 15.8 | – | 0.0316 | Cc1cc(COc2cc(C)n(-c3cc(-c4ccnc(C(C)(C)O)n4)ncc3C)c(=O)c2Cl)ncc1F (single isomer, unassigned) [Example 22A, rel-3-chloro-4-[(5-fluoro-4-methylpyridin-2-yl)methoxy]-2′-[2-(2-hydroxypropan-2-yl)pyrimidin-4-yl]-5′,6-dimethyl-[1,4′-bipyridin]-2-one] |
| > 316 | – | > 10 | Cc1cc(COc2cc(C)n(-c3cc(-c4ccnc(C(C)(C)O)n4)ncc3C)c(=O)c2Cl)ncc1F (single isomer, unassigned) [Example 22B, rel-3-chloro-4-[(5-fluoro-4-methylpyridin-2-yl)methoxy]-2′-[2-(2-hydroxypropan-2-yl)pyrimidin-4-yl]-5′,6-dimethyl-[1,4′-bipyridin]-2-one] |
| 12.6 | 0.00316 | – | Cc1cnc(COc2cc(C)n(-c3cc(-c4ccnc(C(C)(C)O)n4)ncc3C)c(=O)c2Cl)c(F)c1 (single isomer, unassigned) [Example 23A, rel-3-chloro-4-[(3-fluoro-5-methylpyridin-2-yl)methoxy]-2′-[2-(2-hydroxypropan-2-yl)pyrimidin-4-yl]-5′,6-dimethyl-[1,4′-bipyridin]-2-one] |
| > 316 | – | > 10 | Cc1cnc(COc2cc(C)n(-c3cc(-c4ccnc(C(C)(C)O)n4)ncc3C)c(=O)c2Cl)c(F)c1 (single isomer, unassigned) [Example 23B, rel-3-chloro-4-[(3-fluoro-5-methylpyridin-2-yl)methoxy]-2′-[2-(2-hydroxypropan-2-yl)pyrimidin-4-yl]-5′,6-dimethyl-[1,4′-bipyridin]-2-one] |
| 6.31 | 0.00158 | – | Cc1cnc(-c2ccc(F)c(C(C)(C)O)n2)cc1-n1c(C)cc(OCc2ncc(F)cc2F)c(Cl)c1=O (single isomer, unassigned) [Example 24A, rel-3-chloro-4-[(3,5-difluoropyridin-2-yl)methoxy]-1-[5′-fluoro-6′-(2-hydroxypropan-2-yl)-5-methyl-[2,2′-bipyridin]-4-yl]-6-methylpyridin-2-one] |
| > 316 | – | 1.58 | Cc1cnc(-c2ccc(F)c(C(C)(C)O)n2)cc1-n1c(C)cc(OCc2ncc(F)cc2F)c(Cl)c1=O (single isomer, unassigned) [Example 24B, rel-3-chloro-4-[(3,5-difluoropyridin-2-yl)methoxy]-1-[5′-fluoro-6′-(2-hydroxypropan-2-yl)-5-methyl-[2,2′-bipyridin]-4-yl]-6-methylpyridin-2-one] |
| 126 | – | 0.0631 | Cc1cnc(-c2ccnc(C(C)(C)O)n2)cc1-n1c(C)cc(OCc2cc(C(F)F)ccn2)c(Cl)c1=O (single isomer, unassigned) [Example 27A, rel-3-chloro-4-{[4-(difluoromethyl)pyridin-2-yl]methoxy}-2′-[2-(2-hydroxypropan-2-yl)pyrimidin-4-yl]-5′,6-dimethyl-[1,4′-bipyridin]-2-one] |
| > 316 | – | 5.01 | Cc1cnc(-c2ccnc(C(C)(C)O)n2)cc1-n1c(C)cc(OCc2cc(C(F)F)ccn2)c(Cl)c1=O (single isomer, unassigned) [Example 27B, rel-3-chloro-4-{[4-(difluoromethyl)pyridin-2-yl]methoxy}-2′-[2-(2-hydroxypropan-2-yl)pyrimidin-4-yl]-5′,6-dimethyl-[1,4′-bipyridin]-2-one] |
| 12.6 | 0.00794 | – | CCc1cnc(-c2ccnc(C(C)(C)O)n2)cc1-n1c(C)cc(OCc2ncc(F)cc2F)c(Cl)c1=O (single isomer, unassigned) [Example 29A, rel-3-chloro-4-((3,5-difluoropyridin-2-yl)methoxy)-5′-ethyl-2′-(2-(2-hydroxypropan-2-yl)pyrimidin-4-yl)-6-methyl-2H-[1,4′-bipyridin]-2-one] |
| > 316 | – | > 10 | CCc1cnc(-c2ccnc(C(C)(C)O)n2)cc1-n1c(C)cc(OCc2ncc(F)cc2F)c(Cl)c1=O (single isomer, unassigned) [Example 29B, rel-3-chloro-4-((3,5-difluoropyridin-2-yl)methoxy)-5′-ethyl-2′-(2-(2-hydroxypropan-2-yl)pyrimidin-4-yl)-6-methyl-2H-[1,4′-bipyridin]-2-one] |
